Experimental data reported in US10201542B2, “Formulations of pyrimidinedione derivative compounds” (AbbVie Inc., priority 2012, dated 2019).

Test: Solution-based crystallization study, in situ UV/Vis probe
Type: physicochemical
Details: absence of polymer (control); pH 6.8 buffer, start about 80 μg/mL, FIG. 13-A
Experimental: Several polymers (Kollidon VA64, HPMC E5, HPMC K3, PVP K30, and Vitamin E TPGS) were evaluated for their effectiveness in inhibiting or delaying precipitation of the free acid of Compound A through a solution-based mechanism. About 0.05 mL of a highly concentrated solution of Compound A monosodium salt monohydrate dissolved in dimethyl sulfoxide (16 mg/mL on a free acid equivalent weight basis) was added to 10 mL of pH 6.8 sodium phosphate buffer (50 mM phosphate with ionic strength adjusted to 0.155 M with sodium chloride) containing one of the polymers at one of […] different concentrations (0% (control), 0.001%, 0.01%, and 0.1% (weight polymer/volume buffer %)) to provide a supersaturated Compound A solution (about 80 μg/mL on a free acid equivalent weight basis). The supersaturated solution was continuously stirred at 300 rpm at ambient temperatures (about 26° C.) and the solution concentration was monitored for 30 minutes by an in situ UV/Vis dip probe (μDISS Profiler™, pION Inc, Woburn, Mass. 01801, USA) using an external standard.

In the case of `COc1c(-c2ccc3cc(NS(C)(=O)=O)ccc3c2)cc(-n2ccc(=O)[nH]c2=O)cc1C(C)(C)C` [Compound A, N-(6-(3-tert-butyl-5-(2,4-dioxo-3,4-dihydropyrimidin-1(2H)-yl)-2-methoxyphenyl)naphthalen-2-yl)methanesulfonamide], the “concentration of Compound A in the solution after decrease” value is reported as “about 20 μg/mL”.
